Test results reported in ChEMBL document CHEMBL4339188, “Tackling neuroinflammation and cholinergic deficit in Alzheimer's disease: Multi-target inhibitors of cholinesterases, cyclooxygenase-2 and 15-lipoxygenase” (Eur J Med Chem, 2019).

Experiments:
Acetylcholinesterase [1] = target: Acetylcholinesterase (Homo sapiens, UniProt P22303); assay: Inhibition of recombinant human AChE using acetylthiocholine iodide as substrate pre-incubated for 20 mins before substrate addition and measured for 180 secs by spectrophotometry based Ellman's method
Sequence of Acetylcholinesterase (Homo sapiens, UniProt P22303) (P22303 whole entry): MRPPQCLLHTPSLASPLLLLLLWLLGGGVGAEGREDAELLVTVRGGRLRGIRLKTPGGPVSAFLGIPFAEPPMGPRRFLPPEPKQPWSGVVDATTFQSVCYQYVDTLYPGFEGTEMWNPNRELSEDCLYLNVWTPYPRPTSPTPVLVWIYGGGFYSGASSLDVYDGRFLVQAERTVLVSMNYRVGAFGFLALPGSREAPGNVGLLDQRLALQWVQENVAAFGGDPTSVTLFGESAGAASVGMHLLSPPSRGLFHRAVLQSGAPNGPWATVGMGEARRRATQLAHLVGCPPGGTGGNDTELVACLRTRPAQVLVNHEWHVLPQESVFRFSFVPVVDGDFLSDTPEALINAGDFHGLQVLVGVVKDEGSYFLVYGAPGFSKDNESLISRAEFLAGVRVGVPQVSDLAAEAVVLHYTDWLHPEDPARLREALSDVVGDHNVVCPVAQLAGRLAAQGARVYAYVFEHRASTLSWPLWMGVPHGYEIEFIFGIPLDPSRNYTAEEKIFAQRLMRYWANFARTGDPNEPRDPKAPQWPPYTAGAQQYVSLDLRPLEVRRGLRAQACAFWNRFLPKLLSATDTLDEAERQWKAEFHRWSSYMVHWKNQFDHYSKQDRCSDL

in vitro [2] = details: human, HepG2 cells
Description: Cytotoxicity against human HepG2 cell assessed as safe dose that maintains 100% cell viability incubated for 72 hrs by MTT assay

Acetylcholinesterase [3] = target: Acetylcholinesterase (Electrophorus electricus, UniProt O42275); assay: Inhibition of electric eel AChE using acetylthiocholine iodide as substrate incubated for 10 mins by spectrophotometry based Ellman's method
Sequence of Acetylcholinesterase (Electrophorus electricus, UniProt O42275) (O42275 whole entry): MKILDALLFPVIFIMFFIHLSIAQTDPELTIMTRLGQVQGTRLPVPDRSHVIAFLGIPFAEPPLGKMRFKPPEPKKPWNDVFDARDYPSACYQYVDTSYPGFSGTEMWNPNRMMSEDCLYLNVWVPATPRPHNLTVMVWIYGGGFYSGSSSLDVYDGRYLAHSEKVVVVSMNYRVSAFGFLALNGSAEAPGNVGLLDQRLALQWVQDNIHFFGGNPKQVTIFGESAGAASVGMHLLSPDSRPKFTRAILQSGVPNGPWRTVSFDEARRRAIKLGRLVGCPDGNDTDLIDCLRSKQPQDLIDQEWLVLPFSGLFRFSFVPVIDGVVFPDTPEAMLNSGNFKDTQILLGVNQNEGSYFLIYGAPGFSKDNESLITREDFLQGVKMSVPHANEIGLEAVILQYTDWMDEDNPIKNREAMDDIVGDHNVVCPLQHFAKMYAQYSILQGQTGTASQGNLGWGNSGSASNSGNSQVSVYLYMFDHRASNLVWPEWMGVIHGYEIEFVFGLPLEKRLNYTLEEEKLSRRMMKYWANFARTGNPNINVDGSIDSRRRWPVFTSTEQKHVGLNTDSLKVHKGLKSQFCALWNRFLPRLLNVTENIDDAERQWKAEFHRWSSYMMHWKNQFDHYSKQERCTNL

in vitro [4] = details: mouse, mouse neuronal cells
Description: Toxicity in mouse neuronal cells assessed as safe dose that maintains 100% cell viability incubated for 72 hrs by MTT assay

in vitro [5] = details: mouse, mouse neuronal cells; remark: listed apart in the source
Description: Toxicity in mouse neuronal cells assessed as reduction in cell viability incubated for 72 hrs by MTT assay

HepG2 = assay: cells; details: Homo sapiens, HepG2, 72 h
Description: Cytotoxicity against human HepG2 cell assessed as reduction in cell viability incubated for 72 hrs by MTT assay

Cholinesterase = Cholinesterase (Homo sapiens, UniProt P06276); assay: Inhibition of human serum BChE using butyrylthiocholine iodide as substrate pre-incubated for 20 mins before substrate addition and measured for 180 secs by spectrophotometry based Ellman's method
Sequence of Cholinesterase (P06276 whole entry): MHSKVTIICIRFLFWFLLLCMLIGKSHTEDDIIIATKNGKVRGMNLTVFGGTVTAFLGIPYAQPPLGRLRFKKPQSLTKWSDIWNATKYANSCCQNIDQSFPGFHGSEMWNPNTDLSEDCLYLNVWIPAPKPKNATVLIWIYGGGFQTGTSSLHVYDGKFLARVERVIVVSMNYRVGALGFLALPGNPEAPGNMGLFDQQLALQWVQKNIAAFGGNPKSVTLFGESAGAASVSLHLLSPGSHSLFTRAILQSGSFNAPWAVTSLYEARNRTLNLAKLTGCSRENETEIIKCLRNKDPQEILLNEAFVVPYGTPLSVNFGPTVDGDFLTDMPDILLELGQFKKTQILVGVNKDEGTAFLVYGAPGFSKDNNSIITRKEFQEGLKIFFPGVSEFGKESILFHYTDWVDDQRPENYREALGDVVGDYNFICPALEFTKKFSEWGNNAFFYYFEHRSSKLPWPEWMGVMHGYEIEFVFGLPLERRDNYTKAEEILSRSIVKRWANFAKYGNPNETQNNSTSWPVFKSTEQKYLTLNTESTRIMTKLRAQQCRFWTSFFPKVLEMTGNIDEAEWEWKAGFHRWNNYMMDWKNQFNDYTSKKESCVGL

[6] = Safety index, ratio of EC100 for test compound to EC100 for tacrine for cytotoxicity against human HepG2 cell assessed as safe dose that maintains 100% cell viability incubated for 72 hrs by MTT assay; format: cell-based; details: HepG2 cells
in vitro [7] = details: PAMPA, pH 7.4
PC-12 [8] = assay: Anti-inflammatory activity in lipopolysaccharide challenged rat PC12 cells assessed as decrease in interleukin-1 beta production at 100 uM pre-incubated for 24 hrs before LPS challenge for 48 hrs by immunoblot analysis; format: functional
[9] = target: T1, Prostaglandin G/H synthase 1 (Ovis aries, UniProt P05979); assay: Inhibition of ovine COX -1 by colorimetric inhibitor screening assay kit method
T1 sequence (P05979 whole entry): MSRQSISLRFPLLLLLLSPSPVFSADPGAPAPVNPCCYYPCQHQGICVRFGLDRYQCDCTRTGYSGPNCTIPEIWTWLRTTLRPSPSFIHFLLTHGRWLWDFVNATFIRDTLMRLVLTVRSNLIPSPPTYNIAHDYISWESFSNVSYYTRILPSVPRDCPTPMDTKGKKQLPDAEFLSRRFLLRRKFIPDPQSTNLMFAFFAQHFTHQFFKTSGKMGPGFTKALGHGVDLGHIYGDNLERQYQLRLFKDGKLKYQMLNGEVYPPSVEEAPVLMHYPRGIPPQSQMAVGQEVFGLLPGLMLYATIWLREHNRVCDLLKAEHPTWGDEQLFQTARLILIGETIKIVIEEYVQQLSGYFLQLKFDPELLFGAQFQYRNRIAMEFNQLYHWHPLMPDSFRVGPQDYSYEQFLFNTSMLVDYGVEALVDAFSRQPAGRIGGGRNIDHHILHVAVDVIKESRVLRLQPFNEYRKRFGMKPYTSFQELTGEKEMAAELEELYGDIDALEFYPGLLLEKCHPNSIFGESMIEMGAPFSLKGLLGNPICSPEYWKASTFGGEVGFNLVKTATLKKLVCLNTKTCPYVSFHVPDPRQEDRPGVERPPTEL

PC-12 [10] = assay: Anti-inflammatory activity in lipopolysaccharide challenged rat PC12 cells assessed as decrease in TNFalpha production at 100 uM pre-incubated for 24 hrs before LPS challenge for 48 hrs by immunoblot analysis; format: functional
PC-12 [11] = assay: Cytotoxicity against rat PC12 cells assessed as reduction in cell viability up to 300 uM by MTS assay; format: cell-based

Row | SMILES | IC50 (Acetylcholinesterase [1]) | MNTC at 72 h (in vitro [2]) | IC50 (Acetylcholinesterase [3]) | MNTC at 72 h (in vitro [4]) | IC50 at 72 h (in vitro [5]) | IC50 (HepG2) | IC50 (Cholinesterase) | selectivity ratio at 72 h [6] | Papp at 6 h, 50 µM (in vitro [7]) | inhibition at 100 µM (PC-12 [8]) | IC50 [9] | inhibition at 100 µM (PC-12 [10]) | Activity (PC-12 [11])
1 | S=C(NNc1c2c(nc3ccccc13)CCCC2)Nc1ccc(Cl)cc1 | 0.786 µM | 1.97 µM | 3.83 µM | 2400 nM | 7.1 µM | 21.9 µM | 0.328 µM | – | – | – | – | – | –
2 | S=C(NNc1c2c(nc3ccccc13)CCCC2)Nc1ccc(Br)cc1 | 0.571 µM | 2.96 µM | 0.861 µM | 788 nM | 19.7 µM | 69.5 µM | 0.426 µM | – | – | – | – | – | –
3 | O=[N+]([O-])c1ccc(-n2cc(COc3ccc(/C=N/Nc4c5c(nc6ccccc46)CCCC5)cc3)nn2)cc1 | 1.05 µM | 7.7 µM | 0.535 µM | 830 nM | 2.95 µM | 53.6 µM | 0.0256 µM | – | – | – | – | – | –
4 | Cl.Clc1ccc(-n2cc(COc3ccc(/C=N/Nc4c5c(nc6ccccc46)CCCC5)cc3)nn2)cc1 | 7.03 µM | 70 µM | 4.38 µM | 3580 nM | 8.28 µM | 178 µM | 0.0678 µM | 72 | 6.07 ×10⁻⁶ cm/s | > 90% | 13.4 µM | > 60% | Non-Toxic
5 | NS(=O)(=O)c1ccc(-n2cc(COc3ccc(/C=N/Nc4c5c(nc6ccccc46)CCCC5)cc3)nn2)cc1 | 1.11 µM | 1.04 µM | 0.807 µM | 1580 nM | 16.4 µM | 25.7 µM | 0.0389 µM | – | – | – | – | – | –
6 | C(=N\Nc1c2c(nc3ccccc13)CCCC2)/c1ccc(OCc2cn(-c3ccccc3)nn2)cc1 | 0.9 µM | 3.1 µM | 0.917 µM | 1950 nM | 34.5 µM | 28.4 µM | 0.054 µM | – | – | – | – | – | –
7 | O=[N+]([O-])c1cccc(-n2cc(COc3ccc(/C=N/Nc4c5c(nc6ccccc46)CCCC5)cc3)nn2)c1 | 1.46 µM | 4.18 µM | 0.066 µM | 976 nM | 28 µM | 50.1 µM | 0.0482 µM | – | – | – | – | – | –
8 | NS(=O)(=O)c1ccc(NC(=S)NNc2c3c(nc4ccccc24)CCCC3)cc1 | 0.961 µM | 1.19 µM | 0.792 µM | 295 nM | 3.25 µM | 42.3 µM | 0.307 µM | – | – | – | – | – | –
9 | C(=N\Nc1c2c(nc3ccccc13)CCCC2)/c1ccc(OCc2cn(Cc3ccccc3)nn2)cc1 | 1.05 µM | 1.2 µM | 0.547 µM | 2670 nM | 5.71 µM | 33.4 µM | 0.0361 µM | – | – | – | – | – | –
10 | COc1ccc(NC(=S)NNc2c3c(nc4ccccc24)CCCC3)cc1 | 0.293 µM | 3.33 µM | 0.91 µM | 1380 nM | 4.33 µM | 70.7 µM | 0.568 µM | – | – | – | – | – | –
11 | Brc1ccc(-n2cc(COc3ccc(/C=N/Nc4c5c(nc6ccccc46)CCCC5)cc3)nn2)cc1.Cl | 12.8 µM | 47.9 µM | 18.1 µM | 1000 nM | 18.6 µM | 96.7 µM | 0.0926 µM | – | 6.26 ×10⁻⁶ cm/s | – | 13.9 µM | – | 30%
12 | C#CCOc1ccc(/C=N/Nc2c3c(nc4ccccc24)CCCC3)cc1 | 2.73 µM | 2.73 µM | 0.438 µM | 4810 nM | 8.79 µM | 46.1 µM | 0.11 µM | – | – | – | – | – | –
13 | COc1ccc(-n2cc(COc3ccc(/C=N/Nc4c5c(nc6ccccc46)CCCC5)cc3)nn2)cc1.Cl | 2.3 µM | 27.2 µM | 2.07 µM | 1450 nM | 3.98 µM | 65.1 µM | 0.0682 µM | 27 | 6.35 ×10⁻⁶ cm/s | > 90% | 12.2 µM | > 60% | 30%
14 | C=CCNC(=S)NNc1c2c(nc3ccccc13)CCCC2 | 5.77 µM | 0.63 µM | 1.35 µM | 2770 nM | 6.83 µM | 80 µM | 0.722 µM | – | – | – | – | – | –
15 | Cl.O=C(O)c1ccc(-n2cc(COc3ccc(/C=N/Nc4c5c(nc6ccccc46)CCCC5)cc3)nn2)cc1 | 4.03 µM | 43.1 µM | 1.32 µM | 162 nM | 3.71 µM | 97.9 µM | 0.304 µM | 43 | 1.77 ×10⁻⁶ cm/s | – | – | – | –
16 | S=C(NNc1c2c(nc3ccccc13)CCCC2)Nc1ccccc1 | 0.61 µM | 6.78 µM | 1.85 µM | 395 nM | 10.9 µM | 82.9 µM | 0.748 µM | – | – | – | – | – | –
17 | Cc1ccc(-n2cc(COc3ccc(/C=N/Nc4c5c(nc6ccccc46)CCCC5)cc3)nn2)cc1.Cl | 3.75 µM | 113 µM | 20.2 µM | 2580 nM | 5.85 µM | 262 µM | 0.0757 µM | 116 | 5.5 ×10⁻⁶ cm/s | > 90% | 10.9 µM | > 60% | Non-Toxic
18 | NS(=O)(=O)c1cc2c(cc1Cl)N=CNS2(=O)=O [CHLOROTHIAZIDE] | – | – | – | – | – | – | – | – | 0.66 ×10⁻⁶ cm/s | – | – | – | –
19 | CNC(=C[N+](=O)[O-])NCCSCc1ccc(CN(C)C)o1 [RANITIDINE] | – | – | – | – | – | – | – | – | 0.04 ×10⁻⁶ cm/s | – | – | – | –
